Source: patent publication US6586183B2, “Association of β2-adrenergic receptor haplotypes with drug response” (Genaissance Pharmaceuticals, Inc., priority 2000, dated 2003)

Tested on: asthma patients
Assay: Bronchodilator response (spirometry, FEV1) of asthma patients to inhaled albuterol, by β2AR haplotype pair
Format: in vivo, human
Experimental: The patients in the asthma cohort were enrolled from an outpatient facility as described in detail elsewhere (Yan, L., Galinsky, R. E., Bernstein, J. A., Liggett, S. B. & Weinshilboum, R. M. (1999) Pharmacogenetics in Press). […] Forced expiratory volume in 1 second (FEV1) and forced vital capacity (FVC) were determined in triplicate. The predicted values for these measurements were calculated based on standard algorithms (Morris, J. F., Koski, A. & Johnson, L. C. (1971) Am Rev Respir Dis 103, 57-67).
The association between changes in % predicted FEV1 and haplotype pair was assessed by fitting an analysis of covariance model (ANCOVA) with terms for haplotype pair, sex and baseline severity. P-values from pairwise comparisons by haplotype pair were adjusted for multiple comparisons by applying the Holm-Sidak step-down procedure (Ludbrook, J. (1998) Clin and Exp Pharmacology & Physiology 25, 1032-1037.). […] In addition, the African-American asthma patients were excluded from the analysis due to the low number of individuals in this population group. For the analysis of individual SNPs, a similar ANCOVA model was employed with a discrete term for SNP genotype, and terms for sex and baseline severity. The Holm-Sidak step-down procedure was used to adjust the p-values from the individual SNP analyses for the number of tests performed.
Pairwise tests were made while correcting for multiple comparisons. […] For this analysis, a similar ANCOVA model as above was utilized. […] Since 0, 1 or 2 copies of these two haplotypes are present in our population as haplotype pairs 2/2, 2/4 and 4/4, a potential gene dose effect can be assessed by regression analysis.

CC(C)(C)NCC(O)c1ccc(O)c(CO)c1 (stereo not drawn) [albuterol]
bronchodilator response to albuterol (asthmatic patients with haplotype pair 2/6): moderate bronchodilator response
bronchodilator response to albuterol (asthmatic patients with haplotype pairs 2/2 and 4/6): respond well
bronchodilator response to albuterol (asthmatic patients with haplotype pairs 2/4 and 4/4): little to no response
